In a compilation of properties of binary mixtures (doi:10.1021/je060126x):

Test: xn = mol fraction of the nth substance listed
Conditions: 298.15 K, 101 kPa

Work on `CCOS(=O)(=O)[O-].CC[n+]1ccn(C)c1` + CCO yielded a speed of sound (x2 = 0.1271) of 1657 m/s, a viscosity (x2 = 0.1271) of 65.5 mPa·s and a speed of sound (x2 = 0.1281) of 1655 m/s. For the same compound, the viscosity (x2 = 0.1281) was 66.1 mPa·s, the speed of sound (x2 = 0.2039) was 1636 m/s and the viscosity (x2 = 0.2039) was 49.8 mPa·s. It also gave a speed of sound (x2 = 0.3088) of 1603 m/s, a viscosity (x2 = 0.3088) of 34.69 mPa·s and a speed of sound (x2 = 0.3256) of 1598 m/s. The viscosity (x2 = 0.3256) was 32.21 mPa·s, the speed of sound (x2 = 0.3598) was 1586 m/s and the viscosity (x2 = 0.3598) was 28.75 mPa·s. For the same compound, the speed of sound (x2 = 0.4147) was 1566 m/s, the viscosity (x2 = 0.4147) was 22.88 mPa·s and the speed of sound (x2 = 0.4336) was 1558 m/s. It also gave a viscosity (x2 = 0.4336) of 21.39 mPa·s, a speed of sound (x2 = 0.4604) of 1545 m/s and a viscosity (x2 = 0.4604) of 18.98 mPa·s. For the same compound, the speed of sound (x2 = 0.5103) was 1525 m/s, the viscosity (x2 = 0.5103) was 15.4 mPa·s and the speed of sound (x2 = 0.5223) was 1516 m/s. It also gave a viscosity (x2 = 0.5223) of 14.78 mPa·s, a speed of sound (x2 = 0.5724) of 1490 m/s and a viscosity (x2 = 0.5724) of 11.74 mPa·s. It also gave a speed of sound (x2 = 0.5926) of 1480 m/s, a viscosity (x2 = 0.5926) of 10.83 mPa·s and a speed of sound (x2 = 0.5951) of 1467 m/s. It also gave a viscosity (x2 = 0.5951) of 10.65 mPa·s, a speed of sound (x2 = 0.712) of 1407 m/s and a viscosity (x2 = 0.712) of 6.13 mPa·s. It also gave a speed of sound (x2 = 0.7174) of 1406 m/s, a viscosity (x2 = 0.7174) of 5.98 mPa·s and a speed of sound (x2 = 0.7676) of 1369 m/s. It also gave a viscosity (x2 = 0.7676) of 4.68 mPa·s, a speed of sound (x2 = 0.806) of 1339 m/s and a viscosity (x2 = 0.806) of 3.86 mPa·s. It also gave a speed of sound (x2 = 0.8666) of 1286 m/s, a viscosity (x2 = 0.8666) of 2.709 mPa·s and a speed of sound (x2 = 0.9026) of 1253 m/s. For the same compound, the viscosity (x2 = 0.9026) was 2.189 mPa·s, the speed of sound (x2 = 0.9062) was 1248 m/s and the viscosity (x2 = 0.9062) was 2.138 mPa·s. It also gave a speed of sound (x2 = 0.9504) of 1202 m/s, a viscosity (x2 = 0.9504) of 1.628 mPa·s and a speed of sound (x2 = 0.9522) of 1200 m/s. The viscosity (x2 = 0.9522) was 1.589 mPa·s.
